Measurements from US7851484B2, “Certain chemical entities, compositions, and methods” (Cytokinetics, Inc., priority 2007, dated 2010).

These molecules were tested on SKM MF (assay: SKM MF AC1.4: ATPase screen of skeletal sarcomeric proteins with PK/LDH coupled enzyme system). Settings: not given.
Assay type: biochemical
Design: AC1.4 Median: unit not given here
Procedure: For example, test compounds can be assayed in a highly parallel fashion by using multiwell plates by placing the compounds either individually in wells or testing them in mixtures. Assay components including the target protein complex, coupling enzymes and substrates, and ATP can then be added to the wells and the absorbance or fluorescence of each well of the plate can be measured with a plate reader.
In some embodiments, the method uses a 384 well plate format and a 25 μL reaction volume. A pyruvate kinase/lactate dehydrogenase coupled enzyme system (Huang T G and Hackney D D. (1994) J Biol Chem 269(23):16493-501) can be used to measure the rate of ATP hydrolysis in each well. As will be appreciated by those in the art, the assay components are added in buffers and reagents. The incubation periods can be optimized to give adequate detection signals over the background. The assay can be done in real time giving the kinetics of ATP hydrolysis which increases the signal to noise ratio of the assay.
Just prior to screening, the actin, tropomyosin, and troponin complex are mixed together in the desired ratio (e.g., 7:1:1) to achieve maximal calcium regulation of the actin filament. The screen is conducted at a pCa=6.5. This calcium concentration is in the physiological range during muscle contraction.
To measure the generation of ADP during the reaction, a pyruvate kinase/lactate dehydrogenase/NADH coupled enzyme system (PK/LDH) is added to the actin. The myosin is kept separately. The plates are read in real time so that kinetic curves are obtained. These compounds are in DMSO and were already spotted onto the bottoms of 384 well plates at 10 to 40 μg/ml final concentration.

Molecule	SKM MF AC1.4
CCC(CC)n1c(=O)[nH]c2ncccc21 [1-(pentan-3-yl)-1H-imidazo[4,5-b]pyridin-2(3H)-one]	19.2 µM
CCC(CC)n1c(O)nc2ncc(Br)cc21 [6-bromo-1-(pentan-3-yl)-1H-imidazo[4,5-b]pyridin-2-ol]	0.9 µM
CCC(CC)n1c(O)nc2ncc(Cl)cc21 [6-chloro-1-(pentan-3-yl)-1H-imidazo[4,5-b]pyridin-2-ol]	0.82 µM

Same assay, conditions: median

Molecule	AC1.4 Median
1-(ethylpropyl)-6-(1-methylvinyl)imidazo[4,5-b]pyridin-2-ol	10.1217
1-(ethylpropyl)-6-(2-methylprop-1-enyl)imidazo[4,5-b]pyridin-2-ol	35.3882
1-(ethylpropyl)-6-(3-thienyl)imidazo[4,5-b]pyridin-2-ol	22.3369
1-(ethylpropyl)-6-ethynyl-2-hydroxyimidazo[4,5-b]pyridine-7-carbonitrile	0.1028
1-(ethylpropyl)-6-ethynyl-7-methylimidazo[4,5-b]pyridin-2-ol	2.0265
1-(ethylpropyl)-6-methoxyimidazo[4,5-b]pyridin-2-ol	24.0256
1-(ethylpropyl)-6-prop-1-ynylimidazo[4,5-b]pyridin-2-ol	27.8274
1-(ethylpropyl)imidazo[4,5-b]pyridine-2,6-diol	7.8719
6-((1Z)prop-1-enyl)-1-(ethylpropyl)imidazo[4,5-b]pyridin-2-ol	3.5145
6-bromo-1-(ethylpropyl)-7-methylimidazo[4,5-b]pyridin-2-ol	2.2135
6-chloro-1-(ethylpropyl)-7-(hydroxyethyl)imidazo[4,5-b]pyridin-2-ol	30.7467
6-chloro-1-(ethylpropyl)-7-(hydroxymethyl)imidazo[4,5-b]pyridin-2-ol	42.6538
6-chloro-1-(methylethyl)imidazo[4,5-b]pyridin-2-ol	25.8589
7-[(dimethylamino)methyl]-6-chloro-1-(ethylpropyl)benzimidazol-2-ol	13.3270
CC(C)(Cc1ccccc1)n1c(O)nc2ncc(Cl)cc21 [1-(1,1-dimethyl-2-phenylethyl)-6-chloroimidazo[4,5-b]pyridin-2-ol]	8.2080
CC(C)CC(C)n1c(O)nc2ncc(Cl)cc21 (stereo not drawn) [1-(1,3-dimethylbutyl)-6-chloroimidazo[4,5-b]pyridin-2-ol]	5.7765
OC[C@@H](C1CCCCC1)n1c(O)nc2ncc(Cl)cc21 [1-((1R)-1-cyclohexyl-2-hydroxyethyl)-6-chloroimidazo[4,5-b]pyridin-2-ol]	37.7104
CC[C@H](CCO)n1c(O)nc2ncc(Cl)cc21 [1-((1R)-1-ethyl-3-hydroxypropyl)-6-chloroimidazo[4,5-b]pyridin-2-ol]	7.7806
CC[C@@H](C)n1c(O)nc2ncc(Cl)cc21 [1-((1R)-1-methylpropyl)-6-chloroimidazo[4,5-b]pyridin-2-ol]	10.6839
C[C@H](c1ccccc1)n1c(O)nc2ncc(Cl)cc21 [1-((1R)-1-phenylethyl)-6-chloroimidazo[4,5-b]pyridin-2-ol]	35.2255
CC[C@H](CN=[N+]=[N-])n1c(O)nc2ncc(Cl)cc21 [1-((1R)-3-diazo-1-ethyl-3-azaprop-3-enyl)-6-chloroimidazo[4,5-b]pyridin-2-ol]	11.2261
CC[C@@H](CCO)n1c(O)nc2ncc(Cl)c(I)c21 [1-((1S)-1-ethyl-3-hydroxypropyl)-6-chloro-7-iodoimidazo[4,5-b]pyridin-2-ol]	37.2312
C[C@@H](c1ccccc1)n1c(O)nc2ncc(Cl)cc21 [1-((1S)-1-phenylethyl)-6-chloroimidazo[4,5-b]pyridin-2-ol]	31.7670
CC[C@@H](c1ccccc1)n1c(O)nc2ncc(Cl)cc21 [1-((1S)-1-phenylpropyl)-6-chloroimidazo[4,5-b]pyridin-2-ol]	6.3763
CCC(CC)n1c(O)nc2ncc(C(F)(F)F)cc21 [1-(ethylpropyl)-6-(trifluoromethyl)imidazo[4,5-b]pyridin-2-ol]	47.6668
CCC(CC)n1c(=O)[nH]c2ncccc21 [1-(pentan-3-yl)-1H-imidazo[4,5-b]pyridin-2(3H)-one]	19.1998
C=Cc1cnc2nc(O)n(C(CC)CC)c2c1 [1-(pentan-3-yl)-6-vinyl-1H-imidazo[4,5-b]pyridin-2-ol]	3.0420

Molecule	AC1.4 Median
CC(C)(C)n1c(O)nc2ncc(Cl)cc21 [1-(tert-butyl)-6-chloroimidazo[4,5-b]pyridin-2-ol]	9.8213
CC(C)(C)C(CO)n1c(O)nc2ncc(Cl)cc21 (stereo not drawn) [1-[1-(tert-butyl)-2-hydroxyethyl]-6-chloroimidazo[4,5-b]pyridin-2-ol]	48.1977
CC[C@H](CN1CCOCC1)n1c(O)nc2ncc(Cl)cc21 [1-[(1R)-1-(morpholin-4-ylmethyl)propyl]-6-chloroimidazo[4,5-b]pyridin-2-ol]	15.2631
CC(C)C[C@H](CO)n1c(O)nc2ncc(Cl)cc21 [1-[(1R)-2-hydroxy-1-(2-methylpropyl)ethyl]-6-chloroimidazo[4,5-b]pyridin-2-ol]	5.6431
Oc1nc2ncc(Cl)cc2n1[C@H](Cc1ccccn1)CN1CCOCC1 [1-[(1R)-2-morpholin-4-yl-1-(2-pyridylmethyl)ethyl]-6-chloroimidazo[4,5-b]pyridin-2-ol]	10.9895
Oc1nc2ncc(Cl)cc2n1[C@H](Cc1ccccc1)CN1CCOCC1 [1-[(1R)-2-morpholin-4-yl-1-benzylethyl]-6-chloroimidazo[4,5-b]pyridin-2-ol]	8.8149
CC(C)C[C@H](CN1CCOCC1)n1c(O)nc2ncc(Cl)cc21 [1-[(1R)-3-methyl-1-(morpholin-4-ylmethyl)butyl]-6-chloroimidazo[4,5-b]pyridin-2-ol]	5.0392
CCC(CC)n1c(O)nc2nc(Br)c(Br)cc21 [5,6-dibromo-1-(ethylpropyl)imidazo[4,5-b]pyridin-2-ol]	9.8768
CCC(CC)n1c(O)nc2nc(Cl)c(Cl)cc21 [5,6-dichloro-1-(ethylpropyl)imidazo[4,5-b]pyridin-2-ol]	8.6854
CCC(CC)n1c(O)nc2ncc(SC)cc21 [6-(methylthio)-1-(pentan-3-yl)-1H-imidazo[4,5-b]pyridin-2-ol]	13.7960
CCC(CC)n1c(O)nc2ncc(Br)cc21 [6-bromo-1-(pentan-3-yl)-1H-imidazo[4,5-b]pyridin-2-ol]	1.1739
CC(n1c(O)nc2ncc(Cl)cc21)C(C)(C)C (stereo not drawn) [6-chloro-1-(1,2,2-trimethylpropyl)imidazo[4,5-b]pyridin-2-ol]	28.0697
CCC(CO)n1c(O)nc2ncc(Cl)cc21 (stereo not drawn) [6-chloro-1-(1-ethyl-2-hydroxyethyl)imidazo[4,5-b]pyridin-2-ol]	8.4752
CCC(C(C)C)n1c(O)nc2ncc(Cl)cc21 (stereo not drawn) [6-chloro-1-(1-ethyl-2-methylpropyl)imidazo[4,5-b]pyridin-2-ol]	10.7918
CCC(CC(C)C)n1c(O)nc2ncc(Cl)cc21 (stereo not drawn) [6-chloro-1-(1-ethyl-3-methylbutyl)imidazo[4,5-b]pyridin-2-ol]	2.6422
CCC(CC)(Cn1c(O)nc2ncc(Cl)cc21)c1ccccc1 [6-chloro-1-(2-ethyl-2-phenylbutyl)imidazo[4,5-b]pyridin-2-ol]	11.0001
CCC(CC)Cn1c(O)nc2ncc(Cl)cc21 [6-chloro-1-(2-ethylbutyl)-1H-imidazo[4,5-b]pyridin-2-ol]	25.2370
CC(Cn1c(O)nc2ncc(Cl)cc21)c1ccccc1 (stereo not drawn) [6-chloro-1-(2-phenylpropyl)imidazo[4,5-b]pyridin-2-ol]	22.4532
CCC(CC)n1c(O)nc2ncc(Cl)c(C#N)c21 [6-chloro-1-(ethylpropyl)-2-hydroxyimidazo[4,5-b]pyridine-7-carbonitrile]	1.0215
C=C(C)c1c(Cl)cnc2nc(O)n(C(CC)CC)c12 [6-chloro-1-(ethylpropyl)-7-(1-methylvinyl)imidazo[4,5-b]pyridin-2-ol]	1.8005
CCC(CC)n1c(O)nc2ncc(Cl)c(I)c21 [6-chloro-1-(ethylpropyl)-7-iodoimidazo[4,5-b]pyridin-2-ol]	1.1778
CCC(CC)n1c(O)nc2ncc(Cl)c(C)c21 [6-chloro-1-(ethylpropyl)-7-methylimidazo[4,5-b]pyridin-2-ol]	3.9463
C=CCc1c(Cl)cnc2nc(O)n(C(CC)CC)c12 [6-chloro-1-(ethylpropyl)-7-prop-2-enylimidazo[4,5-b]pyridin-2-ol]	3.6218
CCC(CC)n1c(O)nc2ncc(Cl)cc21 [6-chloro-1-(pentan-3-yl)-1H-imidazo[4,5-b]pyridin-2-ol]	1.6866
CCCC(CCC)n1c(O)nc2ncc(Cl)cc21 [6-chloro-1-(propylbutyl)imidazo[4,5-b]pyridin-2-ol]	3.7477
COCCCCn1c(O)nc2ncc(Cl)cc21 [6-chloro-1-[(methoxymethyl)propyl]imidazo[4,5-b]pyridin-2-ol]	45.5421
Oc1nc2ncc(Cl)cc2n1CCCC(F)(F)F [6-chloro-1-[(trifluoromethyl)propyl]imidazo[4,5-b]pyridin-2-ol]	8.0408

Same assay, conditions: median value (footnote †)

Molecule	SKM MF AC1.4 (μM)
C=Cc1cnc2nc(O)n(C(CC)CC)c2c1 [1-(pentan-3-yl)-6-vinyl-1H-imidazo[4,5-b]pyridin-2-ol]	3.042^† μM
CCC(CC)n1c(O)nc2ncc(SC)cc21 [6-(methylthio)-1-(pentan-3-yl)-1H-imidazo[4,5-b]pyridin-2-ol]	13.796^† μM
CCC(CC)Cn1c(O)nc2ncc(Cl)cc21 [6-chloro-1-(2-ethylbutyl)-1H-imidazo[4,5-b]pyridin-2-ol]	25.237^† μM
